One experiment has as its target rat P2X7 (Rattus norvegicus (Rat), UniProt Q64663). Description: Ca2+ flux (FLIPR) in 1321N1 cells expressing recombinant rat P2X7 channel. Format: cell-based. Conditions: 250 μM BzATP. The procedure: (§1) (A) Ca^2+ Flux: 1321N1 cells expressing the recombinant human, rat or mouse P2X7 channel was cultured in HyQ DME/(HyClone/Dulbecco's Modified Eagle Medium) high glucose supplemented with 10% Fetal Bovine Serum (FBS) and appropriate selection marker. Cells were seeded at a density of 25000 cells/well (96-well clear bottom black walled plates) in 100 μl volume/well. On the day of the experiment, cell plates were washed with assay buffer, containing (in mM): 130 NaCl, 2 KCl, 1 CaCl2, 1 MgCl2, 10 HEPES, 5 glucose; pH 7.40 and 300 mOs. After the wash, cells were loaded with the Calcium-4 dye (Molecular Device) and incubated in the dark for 60 minutes. Test compounds were prepared at 250× the test concentration in neat DMSO. Intermediate 96-well compound plates were prepared by transferring 1.2 μL of the compound into 300 μL of assay buffer. A further 3× dilution occurred when transferring 50 μL/well of the compound plate to 100 μL/well in the cell plate. Cells were incubated with test compounds and dye for 30 minutes. […] The fluorescence change was measured 180 seconds after adding the agonist.
(Calcium assays in cells follow changes in intracellular calcium, usually with a dye or a luminescent sensor.)

Experiment [1] addresses T1, P2X7 (Homo sapiens (Human), UniProt Q99572). Description: Ca2+ flux (FLIPR) in 1321N1 cells expressing recombinant human P2X7 channel. The experiment is classed as cell-based. Conditions: 250 μM BzATP. The procedure: as §1
Experiment [2] addresses T1, P2X7. In words: Radioligand binding, human P2X7-1321N1 cell membranes, tritiated A-804598 tracer. Conditions: 1 hour at 4° C. The procedure: (B) Radioligand binding: human or rat P2X7-1321N1 cells were collected and frozen @ −80° C. On the day of the experiment, cell membrane preparations were made according to standard published methods. […] The compound can be prepared as described in the literature. […] The assay was terminated by filtration (GF/B filters pre-soaked with 0.3% PEI) and washed with washing buffer (Tris-HCl 50 mM). The IC50 generated in the binding assay was corrected for tracer concentration and affinity of the tracer to derive at the affinity (Ki) of the test compounds.

Some results are limits rather than exact numbers.

Chain of rat P2X7 (Q64663 whole entry): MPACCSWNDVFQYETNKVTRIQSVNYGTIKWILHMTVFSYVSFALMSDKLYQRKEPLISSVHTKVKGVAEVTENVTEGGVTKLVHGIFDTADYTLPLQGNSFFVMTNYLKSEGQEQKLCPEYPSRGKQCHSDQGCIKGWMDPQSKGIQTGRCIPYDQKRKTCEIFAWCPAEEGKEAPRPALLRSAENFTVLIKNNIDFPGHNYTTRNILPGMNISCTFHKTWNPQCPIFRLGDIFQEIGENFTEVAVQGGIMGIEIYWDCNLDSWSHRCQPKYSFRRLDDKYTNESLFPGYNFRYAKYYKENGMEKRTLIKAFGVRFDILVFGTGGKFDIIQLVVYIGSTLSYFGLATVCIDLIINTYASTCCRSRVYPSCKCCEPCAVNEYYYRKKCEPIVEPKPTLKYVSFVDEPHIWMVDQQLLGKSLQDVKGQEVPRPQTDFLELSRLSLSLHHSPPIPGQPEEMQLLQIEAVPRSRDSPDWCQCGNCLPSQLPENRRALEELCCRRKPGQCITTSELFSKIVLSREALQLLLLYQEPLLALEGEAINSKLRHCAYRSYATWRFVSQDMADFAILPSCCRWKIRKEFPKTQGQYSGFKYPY
T1 sequence (Q99572 whole entry): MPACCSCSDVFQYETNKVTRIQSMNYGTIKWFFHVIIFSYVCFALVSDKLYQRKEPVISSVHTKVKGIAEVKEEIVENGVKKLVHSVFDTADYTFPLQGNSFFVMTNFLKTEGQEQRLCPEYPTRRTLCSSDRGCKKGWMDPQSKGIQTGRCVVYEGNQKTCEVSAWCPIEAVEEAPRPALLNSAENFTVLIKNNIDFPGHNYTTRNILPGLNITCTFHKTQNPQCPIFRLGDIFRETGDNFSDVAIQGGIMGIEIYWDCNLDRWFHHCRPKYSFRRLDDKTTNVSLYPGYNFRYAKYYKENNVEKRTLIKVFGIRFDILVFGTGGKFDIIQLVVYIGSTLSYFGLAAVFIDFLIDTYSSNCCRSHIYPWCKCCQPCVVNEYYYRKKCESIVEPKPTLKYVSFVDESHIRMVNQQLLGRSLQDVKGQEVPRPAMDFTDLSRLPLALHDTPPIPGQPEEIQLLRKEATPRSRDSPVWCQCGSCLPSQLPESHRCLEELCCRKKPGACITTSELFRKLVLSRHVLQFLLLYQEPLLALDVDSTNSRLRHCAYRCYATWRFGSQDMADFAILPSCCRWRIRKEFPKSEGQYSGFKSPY

For orientation: IC50 means the concentration that inhibits the measured activity by half. `CC(c1cccc(C(F)(F)F)c1Cl)N1CCn2c(nnc2-c2cnccn2)C1=O` (racemic) [Example 4, (±)7-{1-[2-Chloro-3-(trifluoromethyl)phenyl]ethyl}-3-pyrazin-2-yl-6,7-dihydro[1,2,4]triazolo[4,3-a]pyrazin-8(5H)-one]: the half-inhibitory concentration (IC50) is above 10000 nM at rat P2X7 and 2690 nM at P2X7 [1].

The Ki is a measure of affinity in units of concentration, obtained from inhibition or displacement. A low value points to tighter binding. On P2X7 [2], `O=C1c2nnc(-c3ncc(F)cn3)n2CC(C2CC2)N1Cc1cccc(C(F)(F)F)c1Cl` (racemic) [Example 70, (±)-7-[2-Chloro-3-(trifluoromethyl)benzyl]-6-cyclopropyl-3-(5-fluoropyrimidin-2-yl)-6,7-dihydro[1,2,4]triazolo[4,3-a]pyrazin-8(5H)-one] showed a Ki of 7.9 nM. The half-inhibitory concentration (IC50) on rat P2X7 is 794 nM; at P2X7 [1], 7.9 nM.

On P2X7 [2], `O=C1c2nnc(-c3ccc(F)cc3)n2CCN1Cc1cccc(C(F)(F)F)c1Cl` [Example 1, 7-[2-Chloro-3-(trifluoromethyl)benzyl]-3-(4-fluorophenyl)-6,7-dihydro[1,2,4]triazolo[4,3-a]pyrazin-8(5H)-one] came in with a Ki of 63.1 nM. Also, the half-inhibitory concentration (IC50) at rat P2X7 was 28400 nM; on P2X7 [1], 148 nM.

As to `O=C1c2nnc(-c3cnccn3)n2CCN1Cc1c(Cl)cccc1Cl` [Example 5, 7-(2,6-Dichlorobenzyl)-3-pyrazin-2-yl-6,7-dihydro[1,2,4]triazolo[4,3-a]pyrazin-8(5H)-one], the IC50 worked out at 2560 nM on rat P2X7 and 942 nM on P2X7 [1].

On to `O=C1c2nnc(-c3cnccn3)n2CCN1Cc1cccc(F)c1F` [Example 6, 7-(2,3-Difluorobenzyl)-3-pyrazin-2-yl-6,7-dihydro[1,2,4]triazolo[4,3-a]pyrazin-8(5H)-one], for which the concentration for half-maximal inhibition (IC50) on rat P2X7 was above 10000 nM.

For the compound `CS(=O)(=O)c1cc(Cl)ccc1CN1CCn2c(nnc2-c2cnccn2)C1=O` [Example 7, 7-[4-Chloro-2-(methylsulfonyl)benzyl]-3-pyrazin-2-yl-6,7-dihydro[1,2,4]triazolo[4,3-a]pyrazin-8(5H)-one], the figures for the IC50 on rat P2X7 and on P2X7 [1] were above 10000 nM and 3400 nM, respectively.

For `C[C@H]1Cn2c(nnc2-c2cn[nH]c2)C(=O)N1Cc1cccc(C(F)(F)F)c1Cl` [Example 25, (6S)-7-[2-Chloro-3-(trifluoromethyl)benzyl]-6-methyl-3-(1H-pyrazol-4-yl)-6,7-dihydro[1,2,4]triazolo[4,3-a]pyrazin-8(5H)-one], the affinity on P2X7 [2] corresponds to a Ki of 25.1 nM. Moreover, the half-inhibitory concentration (IC50) on rat P2X7 came to 3150 nM; at P2X7 [1], 96.6 nM.

On to `C[C@H]1Cn2c(nnc2-c2nccs2)C(=O)N1Cc1cccc(C(F)(F)F)c1Cl` [Example 31, (6S)-7-[2-Chloro-3-(trifluoromethyl)benzyl]-6-methyl-3-(1,3-thiazol-2-yl)-6,7-dihydro[1,2,4]triazolo[4,3-a]pyrazin-8(5H)-one], for which affinity on P2X7 [2] was put at a Ki of 4 nM. The IC50 on rat P2X7 was determined as 135 nM; on P2X7 [1] it was 1.2 nM.

Consider `C[C@H]1Cn2c(nnc2-c2ncc(F)cn2)C(=O)N1Cc1cccc(C(F)(F)F)c1Cl` [Example 34, (6S)-7-[2-Chloro-3-(trifluoromethyl)benzyl]-3-(5-fluoropyrimidin-2-yl)-6-methyl-6,7-dihydro[1,2,4]triazolo[4,3-a]pyrazin-8(5H)-one], for which, at P2X7 [1], the IC50 is 1 nM.

Consider `COc1ccnc(-c2nnc3n2C[C@H](C)N(Cc2cccc(C(F)(F)F)c2Cl)C3=O)c1` [Example 35, (6S)-7-[2-Chloro-3-(trifluoromethyl)benzyl]-3-(4-methoxypyridin-2-yl)-6-methyl-6,7-dihydro[1,2,4]triazolo[4,3-a]pyrazin-8(5H)-one], for which the inhibitory constant (Ki) on P2X7 [2] worked out at 2 nM. For the same compound, the figures for the half-inhibitory concentration (IC50) at rat P2X7 and on P2X7 [1] were 10.6 nM and 0.7 nM, respectively.

Turning to `C[C@H]1Cn2c(nnc2-c2csc(C(F)(F)F)n2)C(=O)N1Cc1cccc(C(F)(F)F)c1Cl` [Example 38, (6S)-7-[2-Chloro-3-(trifluoromethyl)benzyl]-6-methyl-3-[2-(trifluoromethyl)-1,3-thiazol-4-yl]-6,7-dihydro[1,2,4]triazolo[4,3-a]pyrazin-8(5H)-one], the IC50 was 2610 nM at rat P2X7 and 977 nM on P2X7 [1].

The compound `Cc1nc(C)c(-c2nnc3n2C[C@H](C)N(Cc2cccc(C(F)(F)F)c2Cl)C3=O)s1` [Example 39, (6S)-7-[2-Chloro-3-(trifluoromethyl)benzyl]-3-(2,4-dimethyl-1,3-thiazol-5-yl)-6-methyl-6,7-dihydro[1,2,4]triazolo[4,3-a]pyrazin-8(5H)-one] showed a Ki on P2X7 [2] of 27.5 nM. In addition, the 50% inhibitory concentration (IC50) on rat P2X7 amounted to 8670 nM; on P2X7 [1], 22.4 nM.

In the case of `C[C@H]1Cn2c(nnc2-c2cccnn2)C(=O)N1Cc1cccc(C(F)(F)F)c1Cl` [Example 44, (6S)-7-[2-Chloro-3-(trifluoromethyl)benzyl]-6-methyl-3-pyridazin-3-yl-6,7-dihydro[1,2,4]triazolo[4,3-a]pyrazin-8(5H)-one], the IC50 on rat P2X7 came out at 19900 nM; at P2X7 [1], 177 nM.

On to `C[C@H]1Cn2c(nnc2C2CCC2)C(=O)N1Cc1cccc(C(F)(F)F)c1Cl` [Example 49, (6S)-7-[2-Chloro-3-(trifluoromethyl)benzyl]-3-cyclobutyl-6-methyl-6,7-dihydro[1,2,4]triazolo[4,3-a]pyrazin-8(5H)-one], for which the values for the half-inhibitory concentration (IC50) on rat P2X7 and on P2X7 [1] were 13200 nM and 386 nM, respectively.

As to `C[C@H]1Cn2c(nnc2C2CC2)C(=O)N1Cc1cccc(C(F)(F)F)c1Cl` [Example 50, (6S)-7-[2-Chloro-3-(trifluoromethyl)benzyl]-3-cyclopropyl-6-methyl-6,7-dihydro[1,2,4]triazolo[4,3-a]pyrazin-8(5H)-one], the half-inhibitory concentration (IC50) on rat P2X7 is above 10000 nM; at P2X7 [1], 371 nM.

For the compound `C[C@H]1Cn2c(nnc2C2CCCCC2)C(=O)N1Cc1cccc(C(F)(F)F)c1Cl` [Example 51, (6S)-7-[2-Chloro-3-(trifluoromethyl)benzyl]-3-cyclohexyl-6-methyl-6,7-dihydro[1,2,4]triazolo[4,3-a]pyrazin-8(5H)-one], the results for the IC50 at rat P2X7 and on P2X7 [1] were above 10000 nM and 766 nM, respectively.

Turning to `C[C@H]1Cn2c(nnc2C2CCOCC2)C(=O)N1Cc1cccc(C(F)(F)F)c1Cl` [Example 53, (6S)-7-[2-Chloro-3-(trifluoromethyl)benzyl]-6-methyl-3-(tetrahydro-2H-pyran-4-yl)-6,7-dihydro[1,2,4]triazolo[4,3-a]pyrazin-8(5H)-one], the IC50 on rat P2X7 is above 10000 nM.

Consider `C[C@H]1Cn2c(nnc2-c2cnccn2)C(=O)N1Cc1ccccc1` [Example 79, (6S)-7-Benzyl-6-methyl-3-pyrazin-2-yl-6,7-dihydro[1,2,4]triazolo[4,3-a]pyrazin-8(5H)-one], for which the IC50 at rat P2X7 was above 10000 nM.

Take `C[C@H]1Cn2c(nnc2-c2cnccn2)C(=O)N1Cc1ccccc1Cl` [Example 80, (6S)-7-(2-Chlorobenzyl)-6-methyl-3-pyrazin-2-yl-6,7-dihydro[1,2,4]triazolo[4,3-a]pyrazin-8(5H)-one]: the IC50 on rat P2X7 worked out at 41400 nM.

Take `C[C@H]1Cn2c(nnc2-c2cnccn2)C(=O)N1Cc1ccccc1OC(F)(F)F` [Example 83, (6S)-6-Methyl-3-pyrazin-2-yl-7-[2-(trifluoromethoxy)benzyl]-6,7-dihydro[1,2,4]triazolo[4,3-a]pyrazin-8(5H)-one]: the half-maximal inhibitory concentration (IC50) at rat P2X7 was determined as 11100 nM; at P2X7 [1], 822 nM.

As for `C[C@H]1Cn2c(nnc2-c2cnccn2)C(=O)N1Cc1cc2c(cc1Cl)OCO2` [Example 84, (6S)-7-[(6-Chloro-1,3-benzodioxol-5-yl)methyl]-6-methyl-3-pyrazin-2-yl-6,7-dihydro[1,2,4]triazolo[4,3-a]pyrazin-8(5H)-one], the IC50 on rat P2X7 is above 10000 nM; on P2X7 [1] it was 340 nM.

`C[C@H]1Cn2c(nnc2-c2cnccn2)C(=O)N1Cc1c(Cl)cccc1Cl` [Example 86, (6S)-7-(2,6-Dichlorobenzyl)-6-methyl-3-pyrazin-2-yl-6,7-dihydro[1,2,4]triazolo[4,3-a]pyrazin-8(5H)-one]: the IC50 on rat P2X7 was 1370 nM.

On to `C[C@H]1Cn2c(nnc2-c2cnccn2)C(=O)N1Cc1ccccc1[N+](=O)[O-]` [Example 89, (6S)-6-Methyl-7-(2-nitrobenzyl)-3-pyrazin-2-yl-6,7-dihydro[1,2,4]triazolo[4,3-a]pyrazin-8(5H)-one], for which the IC50 on rat P2X7 was 7280 nM; on P2X7 [1], 26.4 nM.

As for `C[C@H]1Cn2c(nnc2-c2cnccn2)C(=O)N1Cc1cc([N+](=O)[O-])ccc1Cl` [Example 90, (6S)-7-(2-Chloro-5-nitrobenzyl)-6-methyl-3-pyrazin-2-yl-6,7-dihydro[1,2,4]triazolo[4,3-a]pyrazin-8(5H)-one], the figures for the IC50 at rat P2X7 and at P2X7 [1] were 20000 nM and 1000 nM, respectively.

Turning to `C[C@H]1Cn2c(nnc2-c2cnccn2)C(=O)N1Cc1cc(N)ccc1Cl` [Example 91, (6S)-7-(5-Amino-2-chlorobenzyl)-6-methyl-3-pyrazin-2-yl-6,7-dihydro[1,2,4]triazolo[4,3-a]pyrazin-8(5H)-one], the IC50 was 18900 nM at rat P2X7 and 1220 nM at P2X7 [1].
